The supplement of paper PMC11451515

Tests used:
Conditions in all cases: 48 h
P12-Ichikawa [1] = test: AUC of viability dose-response curve (% viability x log10 dose units); higher = less sensitive
Method in brief: (§1)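 Leukemia cells adapted to each medium were seeded in 1536-well plates (500 or 1000 cells/well) and given library compounds in DMSO for 48 h at 37°C. The 11 threefold doses spanned 47 μM to 0.79 nM, and CellTiter-Glo One luminescence was normalised per plate to DMSO and cell-free wells before four-parameter log-logistic fitting on log10 dose. Area under the curve was integrated with the trapezoidal rule, scaling curves above full viability and removing curves that failed quality control.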

NOMO1 [2] = test: as above
Method in brief: as §1

SEM cells [3] = test: as above
Method in brief: as §1

P12-Ichikawa [4] = test: cell viability relative to DMSO control; higher = less cytotoxic
Method in brief: (§2)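 Viability was expressed as a per-plate percentage of DMSO wells, with cell-free wells as background. Leukemia cells (NOMO1 or SEM at 500 cells/well, P12-Ichikawa at 1000 cells/well) were adapted for at least four passages in each medium and seeded in 1536-well plates (5 μl). Library compounds in DMSO were pin-dosed over an 11-point threefold series from 47 μM to 0.79 nM, and CellTiter-Glo One luminescence was read after 48 h at 37°C.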

NOMO1 [5] = test: as above
Method in brief: as §2

SEM cells [6] = test: as above
Method in brief: as §2

CC(C)N(C[C@H]1O[C@@H](n2cnc3c(N)ncnc32)[C@H](O)[C@@H]1O)[C@H]1C[C@@H](CCc2nc3cc(C(C)(C)C)ccc3[nH]2)C1
AUC of viability dose-response curve
Conditions	NOMO1 [2]	P12-Ichikawa [1]	SEM cells [3]
HPLM + 10% dialyzed FBS	386	320	411
RPMI 5 mM glucose + 10% FBS	450	450	333
RPMI 5 mM glucose + 10% dialyzed FBS	429	383	399

cell viability [%]
Conditions	NOMO1 [5]	P12-Ichikawa [4]	SEM cells [6]
HPLM + 10% dialyzed FBS, 0.000781 µM	96.9	87.7	85.1
HPLM + 10% dialyzed FBS, 0.00234 µM	98.5	93.6	87.1
HPLM + 10% dialyzed FBS, 0.00702 µM	111	101	101
HPLM + 10% dialyzed FBS, 0.0211 µM	109	98.2	90.5
HPLM + 10% dialyzed FBS, 0.0632 µM	110	99.2	82
HPLM + 10% dialyzed FBS, 0.19 µM	109	103	95.7
HPLM + 10% dialyzed FBS, 0.569 µM	113	103	96.6
HPLM + 10% dialyzed FBS, 1.71 µM	79.3	12.9	100
HPLM + 10% dialyzed FBS, 5.12 µM	36.1	11.5	82
HPLM + 10% dialyzed FBS, 15.4 µM	65.5	11.6	85.4
HPLM + 10% dialyzed FBS, 46.1 µM	7.55	2.23	4.22
RPMI 5 mM glucose + 10% FBS, 0.000781 µM	84	90	104
RPMI 5 mM glucose + 10% FBS, 0.00234 µM	92.4	96.5	124
RPMI 5 mM glucose + 10% FBS, 0.00702 µM	113	103	131
RPMI 5 mM glucose + 10% FBS, 0.0211 µM	91.5	99.2	112
RPMI 5 mM glucose + 10% FBS, 0.0632 µM	91.8	95.4	115
RPMI 5 mM glucose + 10% FBS, 0.19 µM	115	105	128
RPMI 5 mM glucose + 10% FBS, 0.569 µM	94.9	102	102
RPMI 5 mM glucose + 10% FBS, 1.71 µM	113	103	36.3
RPMI 5 mM glucose + 10% FBS, 5.12 µM	99.1	108	19
RPMI 5 mM glucose + 10% FBS, 15.4 µM	93.3	92.7	21
RPMI 5 mM glucose + 10% FBS, 46.1 µM	9	1.91	5.01
RPMI 5 mM glucose + 10% dialyzed FBS, 0.000781 µM	74.4	96.2	86.3
RPMI 5 mM glucose + 10% dialyzed FBS, 0.00234 µM	95.6	100	100
RPMI 5 mM glucose + 10% dialyzed FBS, 0.00702 µM	97.2	103	105
RPMI 5 mM glucose + 10% dialyzed FBS, 0.0211 µM	91.8	104	88.2
RPMI 5 mM glucose + 10% dialyzed FBS, 0.0632 µM	95.3	96.5	92.8
RPMI 5 mM glucose + 10% dialyzed FBS, 0.19 µM	103	97.6	103
RPMI 5 mM glucose + 10% dialyzed FBS, 0.569 µM	102	113	113
RPMI 5 mM glucose + 10% dialyzed FBS, 1.71 µM	99.9	99.2	100
RPMI 5 mM glucose + 10% dialyzed FBS, 5.12 µM	86.6	31.4	47.6
RPMI 5 mM glucose + 10% dialyzed FBS, 15.4 µM	96.1	31	49
RPMI 5 mM glucose + 10% dialyzed FBS, 46.1 µM	6.04	1.74	4.49

COc1cc([C@@H]2c3cc4c(cc3[C@H](O)[C@H]3COC(=O)[C@@H]23)OCO4)cc(OC)c1OC
AUC of viability dose-response curve
Conditions	NOMO1 [2]	P12-Ichikawa [1]	SEM cells [3]
HPLM + 10% dialyzed FBS	304	271	266
RPMI 5 mM glucose + 10% FBS	280	279	280
RPMI 5 mM glucose + 10% dialyzed FBS	292	291	249

cell viability [%]
Conditions	NOMO1 [5]	P12-Ichikawa [4]	SEM cells [6]
HPLM + 10% dialyzed FBS, 0.000781 µM	89.1	84.1	83.1
HPLM + 10% dialyzed FBS, 0.00234 µM	102	93.9	82.7
HPLM + 10% dialyzed FBS, 0.00702 µM	93.4	95.1	95.3
HPLM + 10% dialyzed FBS, 0.0211 µM	105	104	101
HPLM + 10% dialyzed FBS, 0.0632 µM	91.6	100	86.7
HPLM + 10% dialyzed FBS, 0.19 µM	76.8	77.6	69.5
HPLM + 10% dialyzed FBS, 0.569 µM	32.5	30.8	30.2
HPLM + 10% dialyzed FBS, 1.71 µM	26.3	14.3	19.1
HPLM + 10% dialyzed FBS, 5.12 µM	33.8	8.67	18.8
HPLM + 10% dialyzed FBS, 15.4 µM	23.9	5.39	13.2
HPLM + 10% dialyzed FBS, 46.1 µM	25.2	4.89	11.6
RPMI 5 mM glucose + 10% FBS, 0.000781 µM	84.2	94.5	101
RPMI 5 mM glucose + 10% FBS, 0.00234 µM	87.9	95.3	97.2
RPMI 5 mM glucose + 10% FBS, 0.00702 µM	86.5	96.5	104
RPMI 5 mM glucose + 10% FBS, 0.0211 µM	99.2	95.7	98.3
RPMI 5 mM glucose + 10% FBS, 0.0632 µM	92.7	98.7	93.5
RPMI 5 mM glucose + 10% FBS, 0.19 µM	85.7	83.2	80.7
RPMI 5 mM glucose + 10% FBS, 0.569 µM	39.9	34.1	23.2
RPMI 5 mM glucose + 10% FBS, 1.71 µM	12.5	20.9	12.1
RPMI 5 mM glucose + 10% FBS, 5.12 µM	19.3	8.85	12.2
RPMI 5 mM glucose + 10% FBS, 15.4 µM	16.6	5.8	13.5
RPMI 5 mM glucose + 10% FBS, 46.1 µM	16	4.88	6.13
RPMI 5 mM glucose + 10% dialyzed FBS, 0.000781 µM	92	86.9	75.4
RPMI 5 mM glucose + 10% dialyzed FBS, 0.00234 µM	81.5	95.1	76
RPMI 5 mM glucose + 10% dialyzed FBS, 0.00702 µM	92.9	101	99.9
RPMI 5 mM glucose + 10% dialyzed FBS, 0.0211 µM	90	94.3	86.5
RPMI 5 mM glucose + 10% dialyzed FBS, 0.0632 µM	93.6	97.6	81.2
RPMI 5 mM glucose + 10% dialyzed FBS, 0.19 µM	91.3	91.2	63
RPMI 5 mM glucose + 10% dialyzed FBS, 0.569 µM	47.7	43.9	29.2
RPMI 5 mM glucose + 10% dialyzed FBS, 1.71 µM	20	22.7	16.8
RPMI 5 mM glucose + 10% dialyzed FBS, 5.12 µM	19.4	15	17.9
RPMI 5 mM glucose + 10% dialyzed FBS, 15.4 µM	20.2	10.4	16.9
RPMI 5 mM glucose + 10% dialyzed FBS, 46.1 µM	17.5	5.7	8.73
